From US5904915A, “Method of diagnosing pathological state of tumor cells using a diagnostic agent for glycometabolic function” (Nihon Medi-Physics Co., Ltd., priority 1996, dated 1999)
“Also recorded” adds a separate entry of the source. Like-named read-outs stand apart in the source and are kept apart here. Values belong to the compound of their own block, whether it stands above or below them.

What was measured:
LS180 cells [1] = test: Temperature dependence of intracellular accumulation of AFDG; assay type: cell-based, human; conditions: 60 minutes after administration, 5 μCi
Description: In order to study the temperature dependence of intracellular accumulation of AFDG, an uptake experiment was conducted different from Experiment 1. Cells were suspended in a culture medium at a concentration of 1×10^6 cells/ml and incubated in portions of 1 ml at 4° C. or 37° C. for 15 minutes. Then, 5 μCi of AFDG was added and incubated for 2, 5, 10, 30 and 60 minutes, respectively. At every determined times, cells were centrifuged to make a pellet, which was washed with a cold PBS. After washing twice, the pellet was lysed by 0.2N NaOH solution and assayed for radioactivity.

LS180 cells [2] = test: Effect of extracellular glucose concentration on accumulation and metabolism of FDG and AFDG; assay type: cell-based, human
Description: Then, cells were washed three times with a cold PBS, lysed with 50% ethanol and the lysate was assayed for metabolites.

LS180 cells [3] = test: Effect of DNP on accumulation and metabolism of FDG and AFDG; assay type: cell-based, human
Description: (§1) Then, cells were washed three times with a cold PBS, lysed with 50% ethanol and assayed for metabolites.

LS180 cells [4] = test: Effect of administered dose of AFDG on its intracellular accumulation; assay type: cell-based, human; conditions: increase of the dose of AFDG
LS180 cells [5] = test: Metabolism of AFDG and FDG in LS180 cells (TLC of metabolites); assay type: cell-based, human
Description: After carrying out an experiment according to Experiment 1, cells were stripped off from the plate using 100 μl of 50% ethanol and the solution was centrifuged at 15000 rpm. A 25 μl aliquot of supernatant was subjected to analysis of metabolites by thin-layer chromatography (TLC). The eluent was acetonitrile/water=95/5, and the carrier was silica gel 60. The plate after development was cut at 5 mm intervals and assayed for radioisotope with a gammer counter. Total radioactivity of respective metabolites were calculated from the ratio of metabolites obtained in TLC.

LS180 cells [6] = test: Effect of IAA (hexokinase inhibition) on accumulation and metabolism of FDG and AFDG; assay type: cell-based, human
Description: as §1

LS180 cells [7] = test: Time-course accumulation of FDG and AFDG in LS180 tumor cells; assay type: cell-based, human
Description: LS180 cells were stripped off from the petri dish using trypsin, inoculated on a plate having 24 holes at a concentration of 20×10^4 cells/ml and subjected to the uptake experiment after 24 hours. […] Radioactivity of the lysed solution was measured by an Autowell gamma counter (ARC-2000, manufactured by Aloka corporation).

LS180 cells [8] = test: Effect of AFDG administration on accumulation of glucose; assay type: cell-based, human; conditions: amount used in this experiment
GLUT = test: Effect of DNP on rate of uptake of 3-OMG (GLUT transport) in LS180 cells; assay type: cell-based, human
Description: While it is known that 2,4-dinitrophenol, an uncoupling agent for mitochondrion, causes expression of GLUT on cell membrane to normal cells by a transient decrease of intracellular ATP as a trigger, it has not been confirmed that it has a similar effect on tumor cells. Therefore, transport of [H-3]-3-O-methylglucose in the DNP-treated tumor cells was studied for the case in which GLUT was inhibited by cytocharasin B and for the case in which it was not inhibited, respectively. [H-3]-3-O-methylglucose is a D-glucose derivative which is not subjected to metabolism such as phosphorylation after take up into cells and therefore can suitably be used in an experiment for studying transport ability of GLUT. In the case of DNP treatment, accumulation of [H-3]-3-O-methylglucose was increased by about 70% as compared with the case of no treatment (Table 1), and therefore it was considered that the amount of GLUT expressed on the cell membrane was increased by 70% with the treatment by DNP. The increase in amount was by far smaller than the increase described for normal cells. This is due to the fact that the amount of GLUT expressed on the tumor cell membrane is by far greater than the amount for normal cells.
For studying uptake of [H-3 ]-3-O-methylglucose (3-OMG) into cells excluding nonspecific bonding, usually cytocharasin B is used. After incubating 10^6 LS180 cells in a medium containing 200 μM DNP placed in a plate having 24 holes, the medium was changed to a medium containing 5 μCi 3-OMG and 200 μM […], respectively, and additionally 50 μM cytocharasin B or a medium without cytocharasin B and the respective cultures were incubated for 60 seconds. Immediately after, the medium was removed and cells were washed three times with a cold PBS containing 0.1 mM phloretin and lysed with 500 μl of 0.2 N NaOH solution. After lysis, a 200 μl portion was used for quantitative determination of proteins and the remaining 300 μl was mixed with a scintillator and radioactivity was measured by a liquid scintillation counter (LSC 5000, manufactured by Aloka corporation). The taken-up amount of 3-OMG which may be inhibited by cytocharasin B was integrated from the difference in mean values of 10 holes in the plate for 3-OMG uptake without cytocharasin B. The results of the experiment are shown in Table 1.

hexokinase = conditions: 5 μM IAA, 37° C.; inferred from accumulation of FDG
Description: as §1

- FDG-6P derived from AFDG in the presence of DNP (LS180 cells [3]; 200 μM DNP, 37° C.): decreased
- presence of FDG and FDG-6P in cells after uptake of AFDG (LS180 cells [5]; 5 minutes after administration): substantially absent
- production of FDG-6P from AFDG relative to that from FDG (LS180 cells [5]; 60 minutes after administration): 1.63 times
- FDG-6P share of total intracellular radioactivity (sum of AFDG, FDG and FDG-6P) (LS180 cells [5]; 60 minutes after administration of AFDG): about 50%
- stability in the extracellular medium (LS180 cells [5]; extracellular medium): stable
- velocity of hydrolysis of AFDG compared with phosphorylation of FDG (LS180 cells [5]; intracellular): greater
- accumulation of AFDG and that of FDG after administration of AFDG (LS180 cells [5]; time course after 5 minutes): followed a constant course
- accumulation of FDG-6P after administration of AFDG (LS180 cells [5]; time course after 5 minutes): increased linearly with passage of time
- mechanism of uptake into cells (LS180 cells [7]; concluded from the experiments): taken up by simple diffusion
SMILES: CC(=O)OC[C@H]1OC(OC(C)=O)[C@H]([18F])[C@@H](OC(C)=O)[C@@H]1OC(C)=O (stereo partly shown) [AFDG, 1,3,4,6-tetra-O-acetyl-2-[F-18]fluorodeoxyglucose]
- accumulation of AFDG at 4° C. relative to that at 37° C. (LS180 cells [1]): one fourth
- production of FDG-6P on doubling glucose concentration in medium (LS180 cells [2]; 11.2 mM vs 22.4 mM glucose, 60 minutes): did not change; also recorded: no change was observed; also recorded: substantially not affected
- intracellular accumulation on doubling glucose concentration in medium (LS180 cells [2]; 11.2 mM vs 22.4 mM glucose, 60 minutes, after AFDG: accumulation of FDG (hydrolysate)): did not change; also recorded: substantially not affected
- intracellular accumulation in the presence of DNP (LS180 cells [3]; 200 μM DNP, 37° C.): decreased
- change in intracellular accumulation with administered dose (LS180 cells [4]): increased with the increase of the dose of AFDG
- hydrolysis of AFDG to FDG in cells (LS180 cells [5]; by esterase, intracellular): quickly hydrolyzed by esterase to FDG and quickly hydrolyzed to form FDG and fast
- intracellular accumulation in the presence of IAA (LS180 cells [6]; 5 μM IAA, 37° C.): remarkably decreased
- accumulation in time course (LS180 cells [7]; LS180 cells, 2 to 60 minutes, 5 μCi): accumulated rapidly in cells in a nonlinear manner
- accumulation of glucose when AFDG was administered (LS180 cells [8]): not inhibited

SMILES: O=[N+]([O-])c1ccc(O)c([N+](=O)[O-])c1 [DNP, 2,4-dinitrophenol]
- increase of amount of GLUT expressed on the cell membrane with DNP (GLUT; inferred from 3-OMG accumulation): 70%

SMILES: OC[C@H]1OC(O)[C@H]([18F])[C@@H](O)[C@@H]1O (stereo partly shown) [FDG, 2-[F-18]fluorodeoxyglucose, reference compound]
- intracellular accumulation on doubling glucose concentration in medium (LS180 cells [2]): decreased
- intracellular accumulation in the presence of DNP (LS180 cells [3]): increased
- activation at 200 µM (LS180 cells [3]; Homo sapiens, LS180, read-out: increase of uptake of FDG with DNP): ~80%
- intracellular accumulation in the presence of IAA (LS180 cells [6]): remarkably decreased
- accumulation in time course (LS180 cells [7]): accumulated and increased almost linearly

SMILES: O=C(O)CI [IAA, iodoacetate]
- hexokinase activity in the presence of IAA (hexokinase): remarkably decreased

- Difference relative to control, DNP treatment (GLUT; ls180 cells, 200 µM): 1.71
SMILES: CO[C@H]1[C@H](O)[C@@H](CO)OC(O)[C@@H]1O (stereo partly shown) [[H-3]3-OMG, [H-3]-3-O-methylglucose]
- Accumulation of [H-3]3-OMG, Difference, DNP treatment (GLUT; Cytocharasin B absent minus present, 200 μM DNP): 3460 dpm/min/100 μg protein
- Accumulation of [H-3]3-OMG, Difference, Control (GLUT; Cytocharasin B absent minus present, no DNP): 2014 dpm/min/100 μg protein
- Accumulation of [H-3]3-OMG, DNP treatment (GLUT; Cytocharasin B absent, 200 μM DNP): 4763 ± 669 dpm/min/100 μg protein
- Accumulation of [H-3]3-OMG, Control (GLUT; Cytocharasin B absent, no DNP): 3235 ± 307 dpm/min/100 μg protein
- Accumulation of [H-3]3-OMG, DNP treatment (GLUT; Cytocharasin B present (50 μM), 200 μM DNP): 1303 ± 229 dpm/min/100 μg protein
- Accumulation of [H-3]3-OMG, Control (GLUT; Cytocharasin B present (50 μM), no DNP): 1511 ± 231 dpm/min/100 μg protein
- increase of accumulation of [H-3]-3-O-methylglucose with DNP treatment (GLUT; compared with no treatment): about 70%
- Difference relative to control, Control (GLUT; in parentheses, no DNP): 1.00
